Source: patent publication US11053204B2, “Pyrimidinyloxy benzene derivatives as herbicides” (FMC Corporation, priority 2015, dated 2021)

How the values were obtained:
Format in all cases: in vivo
[1] = system: blackgrass (Alopecurus myosuroides); experiment: Test C preemergence, plant response rating; conditions: Preemergence
How it was run: (§1)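 Greenhouse plants rated visually against untreated controls 13–15 d after treatment, scale 0 = no effect to 100 = complete control. Postemergence sprays went onto potted plants 2–18 cm tall (1–4 leaves); preemergence sprays onto soil freshly sown in loam–sand or silt loam, chemicals formulated in non-phytotoxic solvent with surfactant.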

corn (Zea mays) = experiment: Test C preemergence, plant response rating; conditions: Preemergence
How it was run: as §1

[2] = system: crabgrass, large (large crabgrass, Digitaria sanguinalis); experiment: Test C preemergence, plant response rating; conditions: Preemergence
How it was run: as §1

[3] = system: foxtail, giant (giant foxtail, Setaria faberii); experiment: Test C preemergence, plant response rating; conditions: Preemergence
How it was run: as §1

[4] = system: lambsquarters (Chenopodium album); experiment: Test C preemergence, plant response rating; conditions: Preemergence
How it was run: as §1

[5] = system: morningglory (Ipomoea coccinea); experiment: Test C preemergence, plant response rating; conditions: Preemergence
How it was run: as §1

[6] = system: nutsedge, yellow (yellow nutsedge, Cyperus esculentus); experiment: Test C preemergence, plant response rating; conditions: Preemergence
How it was run: as §1

[7] = system: oilseed rape (Brassica napus); experiment: Test C preemergence, plant response rating; conditions: Preemergence
How it was run: as §1

[8] = system: ragweed (common ragweed, Ambrosia elatior); experiment: Test C preemergence, plant response rating; conditions: Preemergence
How it was run: as §1

[9] = system: ryegrass, Italian (Italian ryegrass, Lolium multiflorum); experiment: Test C preemergence, plant response rating; conditions: Preemergence
How it was run: as §1

soybean (Glycine max) = experiment: Test C preemergence, plant response rating; conditions: Preemergence
How it was run: as §1

[10] = system: velvetleaf (Abutilon theophrasti); experiment: Test C preemergence, plant response rating; conditions: Preemergence
How it was run: as §1

[11] = system: waterhemp (common waterhemp, Amaranthus rudis); experiment: Test C preemergence, plant response rating; conditions: Preemergence
How it was run: as §1

[12] = system: wheat (winter wheat, Triticum aestivum); experiment: Test C preemergence, plant response rating; conditions: Preemergence
How it was run: as §1

[13] = system: barnyardgrass (Echinochloa crus-galli); experiment: Test C postemergence, plant response rating; conditions: for Plant response rating, Barnyardgrass: scale 0 to 100; for Barnyardgrass plant response rating: scale 0 to 100 (0 no effect, 100 complete control)
How it was run: as §1

[14] = system: blackgrass (Alopecurus myosuroides); experiment: Test C postemergence, plant response rating; conditions: for Plant response rating, Blackgrass: scale 0 to 100; for Blackgrass plant response rating: scale 0 to 100 (0 no effect, 100 complete control)
How it was run: as §1

[15] = system: foxtail, giant (giant foxtail, Setaria faberii); experiment: Test C postemergence, plant response rating; conditions: for Foxtail, Giant plant response rating: scale 0 to 100 (0 no effect, 100 complete control)
How it was run: as §1

[16] = system: morningglory (Ipomoea coccinea); experiment: Test C postemergence, plant response rating; conditions: for Morningglory plant response rating: scale 0 to 100 (0 no effect, 100 complete control)
How it was run: as §1

[17] = system: oilseed rape (Brassica napus); experiment: Test C postemergence, plant response rating; conditions: for Oilseed Rape plant response rating: scale 0 to 100 (0 no effect, 100 complete control)
How it was run: as §1

[18] = system: velvetleaf (Abutilon theophrasti); experiment: Test C postemergence, plant response rating
How it was run: as §1

[19] = system: wheat (winter wheat, Triticum aestivum); experiment: Test C postemergence, plant response rating
How it was run: as §1

[20] = 125 g ai/ha, scale 0 to 100 (0 no effect, 100 complete control)

CCCC(=O)c1c(Oc2ncc(Cl)cn2)cccc1C(F)(F)F [Compound 136]
Plant response rating, Blackgrass ([1]; 125 g ai/ha, scale of 0 to 100): 95
Plant response rating, Blackgrass ([1]; 16 g ai/ha, scale 0 to 100): 0
Plant response rating, Blackgrass ([1]; 31 g ai/ha, scale 0 to 100): 35
Plant response rating, Blackgrass ([1]; 62 g ai/ha, scale 0 to 100): 60
Plant response rating, Corn (corn (Zea mays); 125 g ai/ha, scale of 0 to 100): 5
Plant response rating, Corn (corn (Zea mays); 16 g ai/ha, scale 0 to 100): 0
Plant response rating, Corn (corn (Zea mays); 31 g ai/ha, scale 0 to 100): 0
Plant response rating, Corn (corn (Zea mays); 62 g ai/ha, scale 0 to 100): 5
Plant response rating, Crabgrass, Large ([2]; 125 g ai/ha, scale of 0 to 100): 100
Plant response rating, Crabgrass, Large ([2]; 16 g ai/ha, scale 0 to 100): 50
Plant response rating, Crabgrass, Large ([2]; 31 g ai/ha, scale 0 to 100): 85
Plant response rating, Crabgrass, Large ([2]; 62 g ai/ha, scale 0 to 100): 100
Plant response rating, Foxtail, Giant ([3]; 125 g ai/ha, scale of 0 to 100): 100
Plant response rating, Foxtail, Giant ([3]; 31 g ai/ha, scale 0 to 100): 65
Plant response rating, Foxtail, Giant ([3]; 62 g ai/ha, scale 0 to 100): 70
Plant response rating, Lambsquarters ([4]; 125 g ai/ha, scale of 0 to 100): 80
Plant response rating, Lambsquarters ([4]; 31 g ai/ha, scale 0 to 100): 30
Plant response rating, Lambsquarters ([4]; 62 g ai/ha, scale 0 to 100): 25
Plant response rating, Morningglory ([5]; 125 g ai/ha, scale of 0 to 100): 30
Plant response rating, Morningglory ([5]; 31 g ai/ha, scale 0 to 100): 0
Plant response rating, Morningglory ([5]; 62 g ai/ha, scale 0 to 100): 5
Plant response rating, Nutsedge, Yellow ([6]; 125 g ai/ha, scale of 0 to 100): 5
Plant response rating, Nutsedge, Yellow ([6]; 31 g ai/ha, scale 0 to 100): 0
Plant response rating, Nutsedge, Yellow ([6]; 62 g ai/ha, scale 0 to 100): 0
Plant response rating, Oilseed Rape ([7]; 125 g ai/ha, scale of 0 to 100): 98
Plant response rating, Oilseed Rape ([7]; 31 g ai/ha, scale 0 to 100): 5
Plant response rating, Oilseed Rape ([7]; 62 g ai/ha, scale 0 to 100): 70
Plant response rating, Ragweed ([8]; 125 g ai/ha, scale of 0 to 100): 40
Plant response rating, Ragweed ([8]; 31 g ai/ha, scale 0 to 100): 20
Plant response rating, Ragweed ([8]; 62 g ai/ha, scale 0 to 100): 0
Plant response rating, Ryegrass, Italian ([9]; 125 g ai/ha, scale of 0 to 100): 65
Plant response rating, Ryegrass, Italian ([9]; 31 g ai/ha, scale 0 to 100): 30
Plant response rating, Ryegrass, Italian ([9]; 62 g ai/ha, scale 0 to 100): 35
Plant response rating, Soybean (soybean (Glycine max); 125 g ai/ha, scale of 0 to 100): 40
Plant response rating, Soybean (soybean (Glycine max); 31 g ai/ha, scale 0 to 100): 0
Plant response rating, Soybean (soybean (Glycine max); 62 g ai/ha, scale 0 to 100): 15
Plant response rating, Velvetleaf ([10]; 125 g ai/ha, scale of 0 to 100): 65
Plant response rating, Velvetleaf ([10]; 31 g ai/ha, scale 0 to 100): 5
Plant response rating, Velvetleaf ([10]; 62 g ai/ha, scale 0 to 100): 15
Plant response rating, Waterhemp ([11]; 125 g ai/ha, scale of 0 to 100): 100
Plant response rating, Waterhemp ([11]; 31 g ai/ha, scale 0 to 100): 100
Plant response rating, Waterhemp ([11]; 62 g ai/ha, scale 0 to 100): 100
Plant response rating, Wheat ([12]; 125 g ai/ha, scale of 0 to 100): 10
Plant response rating, Wheat ([12]; 31 g ai/ha, scale 0 to 100): 0
Plant response rating, Wheat ([12]; 62 g ai/ha, scale 0 to 100): 0
Plant response rating, Barnyardgrass ([13]; 16 g ai/ha): 5
Plant response rating, Barnyardgrass ([13]; 31 g ai/ha): 5
Barnyardgrass plant response rating ([13]; 62 g ai/ha): 10
Barnyardgrass plant response rating ([13]; 125 g ai/ha): 10
Plant response rating, Blackgrass ([14]; 16 g ai/ha): 5
Plant response rating, Blackgrass ([14]; 31 g ai/ha): 10
Blackgrass plant response rating ([14]; 62 g ai/ha): 10
Blackgrass plant response rating ([14]; 125 g ai/ha): 15
Plant response rating, Foxtail, Giant ([15]; 16 g ai/ha, scale of 0 to 100): 10
Plant response rating, Foxtail, Giant ([15]; 31 g ai/ha, scale 0 to 100): 20
Foxtail, Giant plant response rating ([15]; 62 g ai/ha): 10
Foxtail, Giant plant response rating ([15]; 125 g ai/ha): 25
Plant response rating, Morningglory ([16]; 16 g ai/ha, scale of 0 to 100): 10
Plant response rating, Morningglory ([16]; 31 g ai/ha, scale 0 to 100): 15
Morningglory plant response rating ([16]; 62 g ai/ha): 20
Morningglory plant response rating ([16]; 125 g ai/ha): 35
Plant response rating, Oilseed Rape ([17]; 16 g ai/ha, scale of 0 to 100): 65
Plant response rating, Oilseed Rape ([17]; 31 g ai/ha, scale 0 to 100): 80
Oilseed Rape plant response rating ([17]; 62 g ai/ha): 80
Oilseed Rape plant response rating ([17]; 125 g ai/ha): 80
Plant response rating, Velvetleaf ([18]; 16 g ai/ha, scale of 0 to 100): 20
Plant response rating, Velvetleaf ([18]; 31 g ai/ha, scale 0 to 100): 50
Velvetleaf plant response rating [18, 20]: 70
Plant response rating, Wheat ([19]; 16 g ai/ha, scale of 0 to 100): 0
Plant response rating, Wheat ([19]; 31 g ai/ha, scale 0 to 100): 5
Wheat plant response rating [19, 20]: 5
